This is an account of results in ChEMBL document CHEMBL1150984, “2,4,5- triarylimidazole inhibitors of IL-1 biosynthesis” (Bioorg Med Chem Lett, 1995).

SMILES strings stand for the structures.

The experiment deals with T1, Polyunsaturated fatty acid 5-lipoxygenase (Rattus norvegicus, UniProt P12527).
T1 sequence (P12527 whole entry): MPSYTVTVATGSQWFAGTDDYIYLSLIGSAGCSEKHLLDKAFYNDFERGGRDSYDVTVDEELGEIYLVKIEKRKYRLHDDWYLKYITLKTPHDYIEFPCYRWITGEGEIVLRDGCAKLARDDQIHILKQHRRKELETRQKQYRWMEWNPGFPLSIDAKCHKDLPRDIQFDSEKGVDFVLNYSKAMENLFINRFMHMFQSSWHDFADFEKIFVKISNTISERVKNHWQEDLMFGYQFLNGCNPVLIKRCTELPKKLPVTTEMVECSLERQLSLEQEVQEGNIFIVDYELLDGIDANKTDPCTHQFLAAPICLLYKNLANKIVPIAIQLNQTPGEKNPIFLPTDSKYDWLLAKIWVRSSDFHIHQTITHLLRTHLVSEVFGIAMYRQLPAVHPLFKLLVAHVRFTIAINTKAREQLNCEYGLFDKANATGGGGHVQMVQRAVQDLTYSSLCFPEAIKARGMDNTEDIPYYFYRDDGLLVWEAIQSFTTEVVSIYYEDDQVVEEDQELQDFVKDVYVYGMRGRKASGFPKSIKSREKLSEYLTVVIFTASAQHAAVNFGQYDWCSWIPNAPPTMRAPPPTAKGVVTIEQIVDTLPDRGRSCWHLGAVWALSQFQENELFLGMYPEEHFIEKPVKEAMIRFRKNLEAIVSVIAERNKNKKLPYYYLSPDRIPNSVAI
Nature of the experiment: biochemical. It counts as cell-based, RBL-1.

Description: Inhibitory activity against 5-lipoxygenase enzyme from RBL-1 cells

The IC50 is the point on the concentration scale where inhibition reaches its midpoint. Regarding `C[S+]([O-])c1ccc(-c2nc(-c3ccc(F)cc3)c(-c3ccnc4ccccc34)[nH]2)cc1` (stereo unspecified), the IC50 was found to be 7.2 µM. This lies in the single-digit micromolar range.
The result for `N#CN=C(N)Cc1ccc(-c2nc(-c3ccncc3)c(-c3ccc(F)cc3)[nH]2)cc1` reads 3.8 µM; that for `CN(C)c1ccc(-c2nc(-c3ccc(F)cc3)c(-c3ccncc3)[nH]2)cc1`, 5.6 µM.
The same measure for `CC1(C)NC(c2ccc(-c3nc(-c4ccc(F)cc4)c(-c4ccncc4)[nH]3)cc2)=NO1`: 7.2 µM.
`Oc1ccccc1-c1nc(-c2ccc(F)cc2)c(-c2ccncc2)[nH]1` came in with an IC50 of 4.1 µM.
The result for `CN(Cc1ccccc1)Cc1ccc(-c2nc(-c3ccncc3)c(-c3ccc(F)cc3)[nH]2)cc1` reads 0.8 µM.
